According to US11819492B2, “Natural product derivatives for inhibiting cellular necroptosis, ferroptosis and oxytosis” (Institut National de la Sante et de la Recherche Medicale …, priority 2016, dated 2023):

Legend:
RIPK1 = molecular target: T1, RIPK1 (Homo sapiens, UniProt Q13546); assay: KINOMEscan Max competition binding assay, RIPK1; conditions: RIPK1, FIG. 8
T1 construct: DNA tag (qPCR read-out); purchased DiscoveRx Corporation, Fremont, USA (assay service)
T1 sequence (Q13546 1-671): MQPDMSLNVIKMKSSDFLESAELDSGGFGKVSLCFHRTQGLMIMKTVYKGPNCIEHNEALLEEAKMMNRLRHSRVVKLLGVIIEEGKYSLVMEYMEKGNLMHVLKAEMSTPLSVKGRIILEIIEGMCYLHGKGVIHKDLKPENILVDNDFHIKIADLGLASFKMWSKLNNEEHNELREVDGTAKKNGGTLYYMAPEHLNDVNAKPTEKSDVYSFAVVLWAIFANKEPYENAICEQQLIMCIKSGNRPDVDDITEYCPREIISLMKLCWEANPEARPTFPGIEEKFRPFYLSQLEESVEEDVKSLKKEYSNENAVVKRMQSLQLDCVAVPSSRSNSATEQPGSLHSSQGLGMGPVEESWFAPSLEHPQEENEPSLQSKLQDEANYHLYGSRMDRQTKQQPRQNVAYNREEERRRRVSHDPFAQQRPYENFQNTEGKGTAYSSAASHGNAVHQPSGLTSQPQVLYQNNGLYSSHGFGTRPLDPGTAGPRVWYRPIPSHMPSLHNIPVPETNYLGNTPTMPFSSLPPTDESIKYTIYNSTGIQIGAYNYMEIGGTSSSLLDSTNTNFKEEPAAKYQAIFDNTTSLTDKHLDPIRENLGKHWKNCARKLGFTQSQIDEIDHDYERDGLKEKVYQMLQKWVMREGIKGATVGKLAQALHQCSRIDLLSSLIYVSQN
Procedure: This experimental approach quantitatively measures the ability of a compound to compete with an immobilized, active-site directed ligand. […] The ability of compound 1 to compete with the immobilized ligand is measured via quantitative PCR of the DNA tag. The codes reported on the FIG. 8 indicate the subclasses of protein kinases: CMGC for CDKs, MAP kinases, GSK and CDK-like kinases; AGC for Protein kinase A, G, and C families (PKA, PKC, PKG); CAMK for Ca2+/calmodulin-dependent protein kinases; CK1, Cell Kinases 1 (originally known as Casein Kinase 1); STE, STE Kinases (Homologs of yeast STErile kinases); TKL, Tyrosine Kinases-Like; TK, Tyrosine Kinases. Each kinase tested in the assay panel is marked with a circle. The hit kinase reported, RIPK1, is marked with a black circle.

[1] = molecular target: T2, Human RIPK1 full length GST-tagged (Homo sapiens, UniProt Q13546); assay: RIPK1 autophosphorylation assay; format: biochemical
T2 construct: Human RIPK1 full length GST-tagged; made in house; host or cells: Sf9 insect cells (baculovirus, Bac-to-Bac)
T2 sequence (Q13546 1-671): T1 sequence (Q13546 1-671)
Procedure: RIPK1 Autophosphorylation Assay: • Human RIPK1 full length GST-tagged was baculovirally expressed in Sf9 cells according to manufacturer's instructions (Bac-to-Bac expression system, Invitrogen) and purified using gluthation-sepharose beads (GE Healthcare). The elution was made in 50 mM Tris-HCl, pH 8.0 buffer supplemented with 30 mM reduced gluthathione (Sigma). The protocol used to detect the enzymatic activity is adapted from Miao and Degterev (Methods Mol. Biol. 2009, 559, 79-93). Kinase reaction was initiated mixing 5 μl of eluted RIPK1, 5 μl of 3X kinase reaction buffer (5 mM MOPS pH 7.2, 2.5 mM β-glycerophosphate, 4 mM MgCl2, 2.5 mM MnCl2, 1 mM EGTA, 0.4 mM EDTA, 50 μg/ml BSA, 0.05 mM DTT), 2 μl H2O and 3 μl of the tested molecule. The mixture was kept on ice for 10 minutes. […] ATP. The ATP solution and the tested inhibitor were added to the kinase and incubated for 30 minutes at 30° C. To stop the enzymatic reaction, 5 μl of loading buffer were added and solution was heated for 3 minutes at 95° C. 25 μl of each reaction were loaded per well in pre-cast NuPage 12% Bis-Tris gel (Life Technology). Necrostatin-1, a well-described inhibitor of RIPK1, was used as an internal control. Coomassie staining was performed in order to estimate the total amount of protein loaded on polyacrylamide gel. […]

[2] = test system: Human endothelial cells (HAEC); assay: In vitro hypoxic cold storage viability assay; format: cell-based
Procedure: Human endothelial cells (HAEC) were grown to confluence, then synchronized using depleted media for 16h. For hypothermia/hypoxia, cells were washed twice with PBS then incubated in University of Wisconsin (UW) solution in 95% N2/5% CO2 atmosphere at 4° C. for 24 hours. […] Shown are mean+/−SD, n=3. UW are cells treated only with UW preservation solution. Controls are cells not subjected to this protocol (cells are continuously oxygenated) but cultivated for the same amount of time in regular culture conditions. […] It should be noted that the hypoxic cold storage mimics the process occurring during graft preservation.

[3] = test system: Porcine LLC-PK1 cells (kidney proximal tubule cell line); assay: Cold-induced cell death (cold storage), MTS viability assay; format: cell-based; conditions: 24 hours at 4° C.
Procedure: At it was previously shown (Ahlenstiel et al. Transplantation […], 81(2), 231-239), cold storage induces a cell-death process. Porcine LLC-PK1 cells (kidney proximal tubule cell line) were stored at approximately 4° C. during 24 hours with or without the tested molecules. […] Cells were then incubated at 37° C., 5% CO2 before performing MTS viability assay. Cell viability was monitored using CellTiter 96® AQueous Non-Radioactive Cell Proliferation Assay (Promega, Fitchburg, WI, USA), based on the water-soluble tetrazolium compound MTS (3-[4,5-dimethylthiazol-2-yl]-5-[3-carboxymethoxy-phenyl]-2-[4-sulfophenyl]-2H-tetrazolium, inner salt) according to the manufacturers instructions.

initial amount of kinase still on the affinity matrix after competition (RIPK1): 0.15%
effect of high ATP concentrations on inhibition of RIPK1 auto-phosphorylation ([1]; high ATP concentrations (e.g. 1 mM), FIG. 7): not affected
Compound: COc1cc(O)c2c(c1)OC(O)(c1ccc(OCc3ccccc3)cc1)CC2=O (centres unmarked) [compound 1]
inhibition of RIPK1 autophosphorylation ([1]; [γ-32P] ATP, 30 minutes at 30° C., FIG. 6): inhibits the RIPK1 autophosphorylation in a dose-dependent way
cell survival, treatment during hypoxia ([2]; UW solution, 95% N2/5% CO2, 4° C., 24 hours, FIG. 10): measurable benefits on cell survival
cell survival, treatment during hypoxia and reoxygenation ([2]; UW solution, 95% N2/5% CO2, 4° C., 24 hours, then reoxygenation, FIG. 11): measurable benefits on cell survival
effect on cell survival compared to the control inhibitors of necroptosis (Nec-1 and Nec-1s) ([2]; hypoxic cold storage): significantly better
protection from death induced by cold storage ([3]; 0.01-50.00 μM, FIGS. 16a, 16b): protects cells from death induced by cold storage
concentration of maximal activity against cold-induced cell death [3]: 504
